Reference: patent US20230135093A1, “TRIAZOLYL DERIVATIVES AS GABA A ALPHA5 PAM” (Hoffmann-La Roche Inc., priority 2020, published 2023)

Legend:
h-GABA-A α5β3γ2 [1] = target: T1, h-GABA-A α5β3γ2 (Homo sapiens, UniProt P18507+P31644); assay: [3H]flumazenil competition binding assay on membranes of HEK293 cells expressing GABAA receptors; conditions: Table 1; displacement of [3H]-Flumazenil (0.5 nM), HEK293 cells expressing human receptors, means of two determinations
T1 construct: expressed in transfected cells; host or cells: Xenopus laevis oocytes, micro-injected with subunit RNA
Procedure: The affinity of compounds at GABAA receptor subtypes was measured by competition for [3H]flumazenil (85 Ci/mmol; Roche) binding to HEK293 cells expressing rat (stably transfected) or human (transiently transfected) receptors of composition α1β3γ2, α2β3γ2, α3β3γ2 and α5β3γ2.
Cell pellets were suspended in Krebs-tris buffer (4.8 mM KCl, 1.2 mM CaCl2, 1.2 mM MgCl2, 120 mM NaCl, 15 mM Tris; pH 7.5; binding assay buffer), homogenized by polytron for ca. 20 sec on ice and centrifuged for 60 min at 4° C. (50000 g; Sorvall, rotor: SM24=20000 rpm). The cell pellets were resuspended in Krebs-tris buffer and homogenized by polytron for ca. 15 sec on ice. Protein was measured (Bradford method, Bio-Rad) and aliquots of 1 mL were prepared and stored at −80° C.
Radioligand binding assays were carried out in a volume of […] (96-well plates) which contained […] of cell membranes, [^3H]-Flumazenil at a concentration of 1 nM for α1, α2, α3 subunits and 0.5 nM for α5 subunits and the test compound in the range of […]. Nonspecific binding was defined by 10^−5 M diazepam and typically represented less than 5% of the total binding. Assays were incubated to equilibrium for 1 hour at 4° C. and harvested onto GF/C uni-filters (Packard) by filtration using a Packard harvester and washing with ice-cold wash buffer (50 mM Tris; pH 7.5). After drying, filter-retained radioactivity was detected by liquid scintillation counting. Ki values were calculated using Excel-Fit (Microsoft) and are the means of two determinations.
In a preferred embodiment the compounds of the invention are binding selective for the α5 subunit relative to the α1, α2 and α3 subunit. Representative test results, obtained by the above described assay measuring binding affinity to HEK293 cells expressing human (h) receptors, are shown in the Table below.

h-GABA-A α5β3γ2 [2] = target: T1, h-GABA-A α5β3γ2; assay: Two-electrode voltage clamp electrophysiology in Xenopus oocytes expressing GABAA receptors (modulation of GABA EC20 current); assay type: cell-based; conditions: Table 1; for Efficacy (GABA) %: % modulation of GABA EC20 = 100*(Fold increase-1); for Fold increase h-GABA-A α5β3γ2 oocyte: Xenopus oocytes, GABA EC20, test compound at approximatively 30 fold its Ki
Procedure: Xenopus laevis oocytes at maturation stages V-VI were used for the expression of cloned mRNA encoding GABAA receptor subunits. Oocytes ready for RNA micro-injection were bought from Ecocyte, Castrop-Rauxel, Germany and stored in modified Barth's medium (composition in mM: NaCl 88, KCl 1, NaHCO3 2.4, HEPES 10, MgSO4 0.82, CaNO3 0.33, CaCl2 0.33, pH=7.5) at 20° C. until the experiment.
Oocytes were plated in 96-well plates to be used in an automated instrument (Robo-ocyte, MultiChannelSystems, Reutlingen, Germany) for microinjection and electrophysiological recordings. Approximately 50 nl of an aqueous solution containing the RNA transcripts for the subunits of the desired GABAA receptor was injected into each oocyte. RNA concentrations ranged between 0.3 and 16 ng/μl/subunit and were adjusted in pilot experiments to obtain GABA responses of a suitable size and a maximal effect of the reference modulator, Beta-CCM (3-CCM), a betacarboline negative allosteric modulator (NAM) at the GABAA receptor benzodiazepine (BZD) binding site or Midazolam, a benzodiazepine positive allosteric modulator (PAM) at the GABAA receptor benzodiazepine (BZD) binding site. The concentration of the γ2 subunit encoding RNA usually was 5- to 10-fold higher than the RNAs encoding the other subunits. Oocytes were kept in modified Barth's medium (composition in mM: NaCl 88, KCl 1, NaHCO3 4, HEPES 10, MgSO4 0.82, CaNO3 0.33, CaCl2 0.33, pH=7.5) at 20° C. until the experiment.
Electrophysiological experiments were performed on days 3 to 5 after the micro-injection of mRNA. During the experiment the oocytes were constantly superfused by a solution containing (in mM) NaCl 90, KCl 1, HEPES 5, MgCl2 1, CaCl2 1 (pH 7.4). Oocytes were impaled by two glass microelectrodes (resistance: 0.4 MQ) which were filled with a solution containing KCl 1M+K-acetate 1.5 M and voltage-clamped to −80 mV. The recordings were performed at room temperature using the Roboocyte two-electrode voltage clamp system (Multichannelsystem). After an initial equilibration period of 1.5 min GABA was added for 1.5 min at a concentration evoking approximately 20% of a maximal current response (EC20). After another rest interval of 2.5 min GABA was again added evoking a response of similar amplitude and shape. 0.5 min after the onset of this second GABA application the test compound, at a concentration corresponding to approximatively 30 fold its Ki, was added while GABA was still present. Current traces were recorded at a digitization rate of 10 Hz during and shortly before and after the GABA application.
Each compound and concentration was tested on at least 3 oocytes. Different oocytes were used for different compound concentrations. β-CCM, a negative allosteric modulator, or Midazolam, a positive allosteric modulators, were tested on a few (3-6) oocytes on each 96-well plate for a positive control at a maximally effective. β-CCM inhibited the GABA-evoked current by approximatively 50% (Fold increase 0.5), while Midazolam potentiated the GABA-induced current by approximatively 150% (Fold increase 2.5).
For the analysis, the digitized current traces of the first and second GABA response were superimposed and, if necessary, rescaled to equal maximal amplitudes. The ratio between the two responses during the time interval of test compound application was calculated point by point. The extremum of the resulting “ratio trace” was taken as the efficacy (“Fold increase”) of the compound expressed as “% modulation of GABA EC20” (100*(Fold increase-1)).

With `Cn1nnc(-c2ccc(Cl)cc2F)c1Cn1ncc(N2CCN(C3CC3)CC2)cc1=O` [Example 17, 2-[[5-(4-chloro-2-fluoro-phenyl)-3-methyl-triazol-4-yl]methyl]-5-(4-cyclopropyl-piperazin-1-yl)pyridazin-3-one] the Ki (h-GABA-A α5β3γ2 [1]) was 12 nM, the “Efficacy (GABA) %” value (h-GABA-A α5β3γ2 [2]) was 75% and the “Fold increase h-GABA-A α5β3γ2 oocyte” value (h-GABA-A α5β3γ2 [2]) was 1.75.
In the case of `Cc1ccc(-c2nnn(C)c2Cn2ncc(N3CCC[C@H]3C)cc2=O)cn1` [Example 18, 2-[[3-methyl-5-(6-methyl-3-pyridyl)triazol-4-yl]methyl]-5-[(2R)-2-methylpyrrolidin-1-yl]pyridazin-3-one], the Ki (h-GABA-A α5β3γ2 [1]) is reported as 0.8 nM, the “Efficacy (GABA) %” value (h-GABA-A α5β3γ2 [2]) is reported as 79% and the “Fold increase h-GABA-A α5β3γ2 oocyte” value (h-GABA-A α5β3γ2 [2]) is reported as 1.79.
With `COC[C@@H]1CCCN1c1cnn(Cc2c(-c3ccc(C)nc3)nnn2C)c(=O)c1` [Example 19, 5-[(2S)-2-(methoxymethyl)pyrrolidin-1-yl]-2-[[3-methyl-5-(6-methyl-3-pyridyl)triazol-4-yl]methyl]pyridazin-3-one] the Ki (h-GABA-A α5β3γ2 [1]) was 10.6 nM, the “Efficacy (GABA) %” value (h-GABA-A α5β3γ2 [2]) was 137% and the “Fold increase h-GABA-A α5β3γ2 oocyte” value (h-GABA-A α5β3γ2 [2]) was 2.37.
With `Cc1nnn(-c2ccc(Cl)cc2)c1Cn1ncc(N2C[C@@H](C)O[C@@H](C)C2)cc1=O` [Example 20, 2-[[3-(4-chlorophenyl)-5-methyl-triazol-4-yl]methyl]-5-[(2R,6S)-2,6-dimethylmorpholin-4-yl]pyridazin-3-one] the Ki (h-GABA-A α5β3γ2 [1]) was 8.4 nM, the “Efficacy (GABA) %” value (h-GABA-A α5β3γ2 [2]) was 108% and the “Fold increase h-GABA-A α5β3γ2 oocyte” value (h-GABA-A α5β3γ2 [2]) was 2.08.
`Cn1nnc(-c2ccc(Cl)cc2F)c1Cn1ncc(N2CCN(C(=O)C3CC3)CC2)cc1=O` [Example 21, 2-[[5-(4-chloro-2-fluoro-phenyl)-3-methyl-triazol-4-yl]methyl]-5-[4-(cyclopropanc-carbonyl)piperazin-1-yl]pyridazin-3-one] was tested, and the Ki (h-GABA-A α5β3γ2 [1]) was 8.7 nM, the “Efficacy (GABA) %” value (h-GABA-A α5β3γ2 [2]) was 140% and the “Fold increase h-GABA-A α5β3γ2 oocyte” value (h-GABA-A α5β3γ2 [2]) was 2.4.
For `CNc1cnn(Cc2c(-c3ccc(Cl)cc3F)nnn2C)c(=O)c1` [Example 22, 2-[[5-(4-chloro-2-fluoro-phenyl)-3-methyl-triazol-4-yl]methyl]-5-(methylamino)pyridazin-3-one], the Ki (h-GABA-A α5β3γ2 [1]) was 20.8 nM, the “Efficacy (GABA) %” value (h-GABA-A α5β3γ2 [2]) was 45% and the “Fold increase h-GABA-A α5β3γ2 oocyte” value (h-GABA-A α5β3γ2 [2]) was 1.45.
In the case of `CCOC1CN(c2cnn(Cc3c(C)nnn3-c3ccc(Cl)cc3F)c(=O)c2)C1` [Example 23, 2-((1-(4-chloro-2-fluorophenyl)-4-methyl-1H-1,2,3-triazol-5-yl)methyl)-5-(3-ethoxyazetidin-1-yl)pyridazin-3(2H)-one], the Ki (h-GABA-A α5β3γ2 [1]) is reported as 70 nM, the “Efficacy (GABA) %” value (h-GABA-A α5β3γ2 [2]) is reported as 75% and the “Fold increase h-GABA-A α5β3γ2 oocyte” value (h-GABA-A α5β3γ2 [2]) is reported as 1.75.
In the case of `Cc1nnn(-c2ccc(Cl)cc2F)c1Cn1ncc(N2Cc3ccccc3C2)cc1=O` [Example 24, 2-[[3-(4-chloro-2-fluoro-phenyl)-5-methyl-triazol-4-yl]methyl]-5-isoindolin-2-yl-pyridazin-3-one], the Ki (h-GABA-A α5β3γ2 [1]) is reported as 52.6 nM, the “Efficacy (GABA) %” value (h-GABA-A α5β3γ2 [2]) is reported as 60% and the “Fold increase h-GABA-A α5β3γ2 oocyte” value (h-GABA-A α5β3γ2 [2]) is reported as 1.6.
`Cc1ccc(-n2nnc(C)c2Cn2ncc(N3CCC[C@H]3C)cc2=O)cn1` [Example 25, 2-[[5-methyl-3-(6-methyl-3-pyridyl)triazol-4-yl]methyl]-5-[(2R)-2-methylpyrrolidin-1-yl]pyridazin-3-one] was tested, and the Ki (h-GABA-A α5β3γ2 [1]) was 4.4 nM, the “Efficacy (GABA) %” value (h-GABA-A α5β3γ2 [2]) was 97% and the “Fold increase h-GABA-A α5β3γ2 oocyte” value (h-GABA-A α5β3γ2 [2]) was 1.97.
For `COC1CN(c2cnn(Cc3c(-c4ccc(Cl)cc4F)nnn3C)c(=O)c2)C1` [Example 26, 2-[[5-(4-chloro-2-fluoro-phenyl)-3-methyl-triazol-4-yl]methyl]-5-(3-methoxyazetidin-1-yl)pyridazin-3-one], the Ki (h-GABA-A α5β3γ2 [1]) was 12.8 nM, the “Efficacy (GABA) %” value (h-GABA-A α5β3γ2 [2]) was 55% and the “Fold increase h-GABA-A α5β3γ2 oocyte” value (h-GABA-A α5β3γ2 [2]) was 1.55.
For `CCOC1CN(c2cnn(Cc3c(-c4ccc(Cl)cc4F)nnn3C)c(=O)c2)C1` [Example 27, 2-[[5-(4-chloro-2-fluoro-phenyl)-3-methyl-triazol-4-yl]methyl]-5-(3-ethoxyazetidin-1-yl)pyridazin-3-one], the Ki (h-GABA-A α5β3γ2 [1]) was 8.2 nM, the “Efficacy (GABA) %” value (h-GABA-A α5β3γ2 [2]) was 69% and the “Fold increase h-GABA-A α5β3γ2 oocyte” value (h-GABA-A α5β3γ2 [2]) was 1.69.
With `Cn1nnc(-c2ccc(Cl)cc2F)c1Cn1ncc(N2CC(OCC3CC3)C2)cc1=O` [Example 28, 2-[[5-(4-chloro-2-fluoro-phenyl)-3-methyl-triazol-4-yl]methyl]-5-[3-(cyclopropyl-methoxy)azetidin-1-yl]pyridazin-3-one] the Ki (h-GABA-A α5β3γ2 [1]) was 18.4 nM, the “Efficacy (GABA) %” value (h-GABA-A α5β3γ2 [2]) was 115% and the “Fold increase h-GABA-A α5β3γ2 oocyte” value (h-GABA-A α5β3γ2 [2]) was 2.15.
For `Cn1nnc(-c2ccc(Cl)cc2F)c1Cn1ncc(N2CC3(CCCO3)C2)cc1=O` [Example 29, 2-[[5-(4-chloro-2-fluoro-phenyl)-3-methyl-triazol-4-yl]methyl]-5-(5-oxa-2-azaspiro[3.4]octan-2-yl)pyridazin-3-one], the Ki (h-GABA-A α5β3γ2 [1]) was 15.2 nM, the “Efficacy (GABA) %” value (h-GABA-A α5β3γ2 [2]) was 49% and the “Fold increase h-GABA-A α5β3γ2 oocyte” value (h-GABA-A α5β3γ2 [2]) was 1.49.
`C[C@@H]1CN(c2cnn(Cc3c(-c4ccc(Cl)cc4)nnn3C)c(=O)c2)C[C@H](C)O1` [Example 30, 2-[[5-(4-chlorophenyl)-3-methyl-triazol-4-yl]methyl]-5-[(2R,6S)-2,6-dimethylmorpholin-4-yl]pyridazin-3-one] was tested, and the Ki (h-GABA-A α5β3γ2 [1]) was 3.1 nM, the “Efficacy (GABA) %” value (h-GABA-A α5β3γ2 [2]) was 110% and the “Fold increase h-GABA-A α5β3γ2 oocyte” value (h-GABA-A α5β3γ2 [2]) was 2.1.
For `CN(C)c1cnn(Cc2c(-c3ccc(Cl)cc3)nnn2C)c(=O)c1` [Example 31, 2-[[5-(4-chlorophenyl)-3-methyl-triazol-4-yl]methyl]-5-(dimethylamino)pyridazin-3-one], the Ki (h-GABA-A α5β3γ2 [1]) was 17.2 nM, the “Efficacy (GABA) %” value (h-GABA-A α5β3γ2 [2]) was 35% and the “Fold increase h-GABA-A α5β3γ2 oocyte” value (h-GABA-A α5β3γ2 [2]) was 1.35.
For `CO[C@@H]1COC2(C1)CN(c1cnn(Cc3c(-c4ccc(Cl)cc4F)nnn3C)c(=O)c1)C2` [Example 32, (S)-2-((4-(4-chloro-2-fluorophenyl)-1-methyl-1H-1,2,3-triazol-5-yl)methyl)-5-(7-methoxy-5-oxa-2-azaspiro[3.4]octan-2-yl)pyridazin-3(2H)-one], the Ki (h-GABA-A α5β3γ2 [1]) was 46.4 nM, the “Efficacy (GABA) %” value (h-GABA-A α5β3γ2 [2]) was 98% and the “Fold increase h-GABA-A α5β3γ2 oocyte” value (h-GABA-A α5β3γ2 [2]) was 1.98.
With `CO[C@H]1COC2(C1)CN(c1cnn(Cc3c(-c4ccc(Cl)cc4F)nnn3C)c(=O)c1)C2` [Example 33, (R)-2-((4-(4-chloro-2-fluorophenyl)-1-methyl-1H-1,2,3-triazol-5-yl)methyl)-5-(7-methoxy-5-oxa-2-azaspiro[3.4]octan-2-yl)pyridazin-3(2H)-one] the Ki (h-GABA-A α5β3γ2 [1]) was 16.7 nM, the “Efficacy (GABA) %” value (h-GABA-A α5β3γ2 [2]) was 61% and the “Fold increase h-GABA-A α5β3γ2 oocyte” value (h-GABA-A α5β3γ2 [2]) was 1.61.
